According to PubChem BioAssay AID190 (DTP/NCI, 2004):
Values joined by “and” are separate entries in the source; they are usually repeats but may differ in a detail not shown here. Identical values can stand only once. Inconclusive results and toxic doses are left out.

System: AKR/Lw mice, AKR lymphoma ip, median survival T/C
Assay: NCI In Vivo Anticancer Drug Screen. Data for tumor model Lymphoma AKR (Transplanted) (intraperitoneal) in AKR/Lw mice
Conditions: endpoint: median survival time, higher = longer survival
Procedure: The antitumor activity of compounds was measured in mice bearing transplantable tumors. Survival or tumor size were measured and the results are expressed as the measurement made in the treated group (T) divided by the measurement made in the vehicle treated control group (C). The tumor model used in this assay is Lymphoma AKR (Transplanted) (intraperitoneal) in AKR/Lw mice

[1] = dose: 100.0 mg/kg/injection, schedule: Q01DX001 (ip), vehicle: Klucel (hydroxypropylcellulose) (HPC)
[2] = dose: 100.0 mg/kg/injection, schedule: Q04DX003 (ip), vehicle: Klucel (hydroxypropylcellulose) (HPC)
[3] = dose: 200.0 mg/kg/injection, schedule: Q01DX001 (ip), vehicle: saline
[4] = dose: 200.0 mg/kg/injection, schedule: Q04DX003 (ip), vehicle: Klucel (hydroxypropylcellulose) (HPC)
[5] = dose: 400.0 mg/kg/injection, schedule: Q01DX001 (ip), vehicle: Klucel (hydroxypropylcellulose) (HPC)
[6] = dose: 400.0 mg/kg/injection, schedule: Q01DX001 (ip), vehicle: saline
[7] = dose: 400.0 mg/kg/injection, schedule: Q04DX003 (ip), vehicle: Klucel (hydroxypropylcellulose) (HPC)

## S=c1nc[nH]c2nc[nH]c12
dose: 6.25 mg/kg/injection, schedule: Q01DX015 (ip), vehicle: Klucel (hydroxypropylcellulose) (HPC)
  T/C: 110 % of control
dose: 10.0 mg/kg/injection, schedule: Q01DX009 (ip), vehicle: saline
  T/C: 94 % of control
dose: 12.5 mg/kg/injection, schedule: Q01DX015 (ip), vehicle: Klucel (hydroxypropylcellulose) (HPC)
  T/C: 100 % of control
dose: 20.0 mg/kg/injection, schedule: Q01DX009 (ip), vehicle: saline
  T/C: 94 % of control and 102 % of control and 105 % of control
dose: 25.0 mg/kg/injection, schedule: Q01DX015 (ip), vehicle: Klucel (hydroxypropylcellulose) (HPC)
  T/C: 100 % of control
dose: 30.0 mg/kg/injection, schedule: Q01DX001 (ip), vehicle: saline
  T/C: 104 % of control and 109 % of control and 112 % of control
dose: 30.0 mg/kg/injection, schedule: Q01DX009 (ip), vehicle: saline
  T/C: 100 % of control
dose: 30.0 mg/kg/injection, schedule: Q04DX003 (ip), vehicle: saline
  T/C: 102 % of control
dose: 37.5 mg/kg/injection, schedule: Q01DX009 (ip), vehicle: saline
  T/C: 104 % of control
dose: 40.0 mg/kg/injection, schedule: Q01DX009 (ip), vehicle: saline
  T/C: 94 % of control and 97 % of control and 113 % of control
dose: 50.0 mg/kg/injection, schedule: Q01DX009 (ip), vehicle: Klucel (hydroxypropylcellulose) (HPC)
  T/C: 100 % of control
dose: 50.0 mg/kg/injection, schedule: Q01DX009 (ip), vehicle: saline
  T/C: 120 % of control
dose: 50.0 mg/kg/injection, schedule: Q01DX015 (ip), vehicle: Klucel (hydroxypropylcellulose) (HPC)
  T/C: 92 % of control and 93 % of control
dose: 50.0 mg/kg/injection, schedule: Q04DX003 (ip), vehicle: saline
  T/C: 100 % of control
dose: 60.0 mg/kg/injection, schedule: Q01DX001 (ip), vehicle: saline
  T/C: 97 % of control and 111 % of control and 113 % of control
dose: 60.0 mg/kg/injection, schedule: Q01DX009 (ip), vehicle: saline
  T/C: 96 % of control
dose: 60.0 mg/kg/injection, schedule: Q04DX003 (ip), vehicle: saline
  T/C: 119 % of control
dose: 75.0 mg/kg/injection, schedule: Q01DX001 (ip), vehicle: saline
  T/C: 113 % of control
dose: 75.0 mg/kg/injection, schedule: Q01DX009 (ip), vehicle: saline
  T/C: 109 % of control
dose: 80.0 mg/kg/injection, schedule: Q01DX009 (ip), vehicle: saline
  T/C: 94 % of control and 123 % of control
[1]
  T/C: 96 % of control
dose: 100.0 mg/kg/injection, schedule: Q01DX009 (ip), vehicle: Klucel (hydroxypropylcellulose) (HPC)
  T/C: 90 % of control
dose: 100.0 mg/kg/injection, schedule: Q01DX009 (ip), vehicle: saline
  T/C: 93 % of control
[2]
  T/C: 97 % of control and 100 % of control and 108 % of control
dose: 100.0 mg/kg/injection, schedule: Q04DX003 (ip), vehicle: saline
  T/C: 102 % of control and 123 % of control
dose: 120.0 mg/kg/injection, schedule: Q01DX001 (ip), vehicle: saline
  T/C: 93 % of control and 104 % of control and 222 % of control
dose: 120.0 mg/kg/injection, schedule: Q04DX003 (ip), vehicle: saline
  T/C: 100 % of control
dose: 150.0 mg/kg/injection, schedule: Q01DX001 (ip), vehicle: Klucel (hydroxypropylcellulose) (HPC)
  T/C: 102 % of control and 112 % of control
dose: 150.0 mg/kg/injection, schedule: Q01DX009 (ip), vehicle: saline
  T/C: 100 % of control
dose: 175.0 mg/kg/injection, schedule: Q01DX001 (ip), vehicle: Klucel (hydroxypropylcellulose) (HPC)
  T/C: 100 % of control
[3]
  T/C: 104 % of control
dose: 200.0 mg/kg/injection, schedule: Q01DX009 (ip), vehicle: saline
  T/C: 110 % of control
[4]
  T/C: 90 % of control
dose: 200.0 mg/kg/injection, schedule: Q04DX003 (ip), vehicle: saline
  T/C: 90 % of control
dose: 300.0 mg/kg/injection, schedule: Q01DX001 (ip), vehicle: Klucel (hydroxypropylcellulose) (HPC)
  T/C: 106 % of control
dose: 300.0 mg/kg/injection, schedule: Q01DX001 (ip), vehicle: saline
  T/C: 119 % of control
[5]
  T/C: 113 % of control
[6]
  T/C: 102 % of control
[7]
  T/C: 121 % of control
dose: 600.0 mg/kg/injection, schedule: Q01DX001 (ip), vehicle: Klucel (hydroxypropylcellulose) (HPC)
  T/C: 115 % of control

## Brc1cc(Br)c(-c2c(Br)cc(Br)cc2Br)c(Br)c1
[1]
  T/C: 103 % of control
dose: 200.0 mg/kg/injection, schedule: Q01DX001 (ip), vehicle: Klucel (hydroxypropylcellulose) (HPC)
  T/C: 100 % of control
[5]
  T/C: 96 % of control

## Cn1c(O)c(C=N)c(=O)[nH]c1=O
dose: 100.0 mg/kg/injection, schedule: Q01DX001 (ip), vehicle: saline
  T/C: 113 % of control
[2]
  T/C: 104 % of control
[3]
  T/C: 94 % of control
[4]
  T/C: 93 % of control
[6]
  T/C: 113 % of control
[7]
  T/C: 97 % of control
